Reference: patent US11850325B2, “Injectable, bioadhesive cryogel scaffolds for biomedical uses” (Northeastern University, priority 2019, dated 2023)

Settings: mouse
Description: All animal experiments were reviewed and approved by Institutional Animal Care and Use Committee (ICAUC; protocol 15-1248R) at Northeastern University (Boston, MA, USA). […] Anesthesia was achieved by isoflurane (2.5%) inhalation, followed by SC buprenorphine (0.02-0.05 mg/kg) administration. After inducing anesthesia, cryogels (4% total polymer concentration (w/v), 4×4×1 mm) were implanted via injection using a sterile 18-gauge needle.
The cryogels sterilized in 70% ethanol (v/v) for 20 minutes and under UV light. Cryogels were loaded into sterile syringes and sterile 18G needles. […] After 21 days post-implantation, animals were euthanized and the cryogels were retrieved along with the surrounding tissues for histological assessment, and placed in cold DPBS. Hydrogels used for biodegradation studies were thoroughly washed in distilled water, and excess tissue was carefully removed under a dissection microscope.
After explantation, samples were fixed in paraformaldehyde (4% v/v)) for 4 h, followed by overnight incubation in 30% sucrose (30% w/v) at 4° C. Samples were then embedded in OCT and flash frozen in liquid nitrogen. Frozen samples were sectioned using a Leica Biosystems CM3050 S Research Cryostat. 14-μm cryosections were obtained and mounted in positively charged slides using DPX mountant medium (Sigma). Slides were then processed for hematoxylin and eosin staining (Sigma) according to instructions from the manufacturer. Immunohistofluorescent staining was performed on mounted cryosections as previously reported.^15 Anti-CD3 [SP7] (ab16669), anti-CD206 (ab125212), anti-F480 were used as primary antibodies, and an Alexa Fluor 594-conjugated secondary antibody (Invitrogen) was used for detection. All sections were counterstained with DAPI (Invitrogen), and visualized on an AxioObserver Z1 inverted microscope.
In vivo injectability, bioadhesion, and immunohistology. Lastly, we characterized the in vivo biodegradation of HAGM and HPD cryogels, including their interactions with native tissues via subcutaneous implantation in a murine animal model. Sterile composite cryogels (HAGM and HPD, 4×4×1 mm) were suspended in 0.2 mL of PBS and were injected subcutaneously in the backs of C57BL/6J mice. After 21 days post-implantation, the mice were euthanized prior to cryogel retrieval, along with adjacent tissue. […] Explanted samples were then flash-frozen at an optimal cutting temperature (OCT) compound, cryosectioned into 14-μm slices, and mounted onto glass slides for histological examination.

macrophage infiltration (CD206 and F480) (in vivo): some macrophages
in vivo biodegradation (visual inspection) (sc): no biodegradation
Substance: hyaluronic acid methacrylate [HAGM]
H&E staining, cell migration into explanted cryogels (in vivo): migration of predominantly non-inflammatory cells
lymphocyte/leukocyte infiltration (CD3) (in vivo): no significant local lymphocyte infiltration
tissue integration and immunocytotoxicity (in vivo, sc): high tissue integration with no immunocytoxicity
